Results reported in ChEMBL document CHEMBL3046898, “Synthesis and characterization of flurbiprofen hydrazide derivatives as potential anti-HCV, anticancer and antimicrobial agents” (2013).
Active and inactive are the calls of the source. The rule behind the calls is not given here.

Tests used:
LOX IMVI = assay: Cytotoxicity against human LOXIMVI assessed as cell growth at 10 uM after 48 hrs by SRB assay; format: functional; details: read-out: Activity
[1] = system: Schwanniomyces occidentalis; assay: Antifungal activity against Schwanniomyces occidentalis at 10 mg/ml after 48 hrs by disc diffusion method; format: functional, organism-based
SK-OV-3 = assay: Cytotoxicity against human SKOV3 assessed as cell growth at 10 uM after 48 hrs by SRB assay; format: functional; details: SK-OV-3, 48 h, read-out: Activity
PC-3 = assay: Cytotoxicity against human PC3 assessed as cell growth at 10 uM after 48 hrs by SRB assay; format: functional; details: PC-3, 48 h, read-out: Activity
[2] = Cytotoxicity against human NCI-ADR-RES assessed as cell growth at 10 uM after 48 hrs by SRB assay; format: functional; details: read-out: Activity
OVCAR-5 = assay: Cytotoxicity against human OVCAR5 assessed as cell growth at 10 uM after 48 hrs by SRB assay; format: functional; details: OVCAR-5, 48 h, read-out: Activity
SW-620 = assay: Cytotoxicity against human SW620 assessed as cell growth at 10 uM after 48 hrs by SRB assay; format: functional; details: SW-620, 48 h, read-out: Activity
Micrococcus luteus = assay: Antibacterial activity against Micrococcus luteus at 6.25 to 200 ug/ml after 24 hrs by microwell dilution method; format: functional, organism-based

Question: Which results are given for `CC(C(=O)NN1C(=O)CSC1c1ccc(C(F)(F)F)cc1)c1ccc(-c2ccccc2)c(F)c1` (stereo not drawn)?
Answer: growth at 10 µM (LOX IMVI): 74.5%; Activity [1]: inactive; growth at 10 µM (SK-OV-3): 94.7%; growth at 10 µM (PC-3): 37.5%; growth at 10 µM [2]: 86.5%; growth at 10 µM (OVCAR-5): 105%; growth at 10 µM (SW-620): 83.9%; Activity (Micrococcus luteus): inactive
